Nine compounds from patent publication US8629273B2, “Diazinylpyrazolyl compounds” (Bayer Intellectual Property GmbH, priority 2009, dated 2014) can be followed below.

Data set [1] has as its system caterpillars of the army worm (Spodoptera frugiperda). Description: Spodoptera frugiperda test (SPODFR spray treatment). The data set is classed as in vivo. The settings on record: 100 g/ha, after 7 days. As to the method: Solvents: 78.0 parts by weight of acetone • • 1.5 parts by weight of dimethyl formamide Emulsifier: 0.5 part by weight of alkylaryl polyglycol ether To produce a suitable preparation of active compound, 1 part by weight of active compound is mixed with the stated amounts of solvent and emulsifier, and the concentrate is diluted with emulsifier-containing water to the desired concentration. Discs of maize leaves (Zea mays) are sprayed with an active compound preparation of the desired concentration and, after drying, populated with caterpillars of the army worm (Spodoptera frugiperda). After 7 days, the activity in % is determined. 100% means that all caterpillars have been killed; 0% means that none of the caterpillars have been killed. The test was carried out and evaluated as described in Example B.5.

Data set [2] in a line: logP by HPLC on reversed-phase columns (C 18), EU Guideline 79/831 Annex V.A8. The data set is classed as physicochemical. The following applies: pH 7.8, 0.001 molar aqueous ammonium bicarbonate and acetonitrile; for logP: ** LC-MS in the neutral range.
In data set [3] the test system is Lucilia cuprina larvae. Description: Lucilia cuprina test (LUCICU). Type of data set: in vivo. The settings on record: 100 ppm, treated horse meat, after 2 days. As to the method:
Solvent: Dimethyl Sulphoxide To produce a suitable preparation of active compound, 10 mg of active compound are mixed with 0.5 ml of dimethyl sulphoxide, and the concentrate is diluted with water to the desired concentration. Containers containing horse meat treated with the active compound preparation of the desired concentration are populated with Lucilia cuprina larvae. After 2 days, the kill in % is determined. 100% means that all larvae have been killed; 0% means that none of the larvae have been killed.

Data set [4] deals with adult Musca domestica. Description: Musca domestica test (MUSCDO). The data set is classed as in vivo. The settings on record: treated sponge. As to the method: Solvent: Dimethyl sulphoxide To prepare a suitable preparation of active compound, 10 mg of active component are mixed with 0.5 ml of dimethyl sulphoxide, and the concentrate is diluted with water to the desired concentration. Vessels containing a sponge which had been treated with the active compound preparation of the desired concentration are populated with adult Musca domestica. After the desired period of time, the kill in % is determined. 100% means that all flies have been killed; 0% means that none of the flies have been killed.

The test system of data set [5] is larvae of the mustard beetle (Phaedon cochleariae). Description: Phaedon test (PHAECO spray treatment). Type of data set: in vivo. The settings on record: 100 g/ha, after 7 days. As to the method:
Solvents: 78.0 parts by weight of acetone • • 1.5 parts by weight of dimethyl formamide Emulsifier: 0.5 part by weight of alkylaryl polyglycol ether To produce a suitable preparation of active compound, 1 part by weight of active compound is mixed with the stated amounts of solvent and emulsifier, and the concentrate is diluted with emulsifier-containing water to the desired concentration. Discs of Chinese cabbage leaves (Brassica pekinensis) are sprayed with an active compound preparation of the desired concentration and, after drying, populated with larvae of the mustard beetle (Phaedon cochleariae). After 7 days, the activity in % is determined. 100% means that all beetle larvae have been killed; 0% means that none of the beetle larvae have been killed. The test was carried out and evaluated as described in Example B.4.

Data set [6] concerns Boophilus microplus. Description: Boophilus microplus test (BOOPMI injection). The data set is classed as in vivo. The settings on record: 20 μg/animal, injected into the abdomen, after 7 days. Here is the method:
Solvent: Dimethyl Sulphoxide To produce a suitable preparation of active compound, 10 mg of active compound are mixed with 0.5 ml of solvent, and the concentrate is diluted with water to the desired concentration. The active compound solution is injected into the abdomen (Boophilus microplus) and the animals are transferred into dishes and stored in a climatized room. The activity is monitored for deposition of fertile eggs. After 7 days, the activity in % is determined. 100% means that none of the ticks has laid fertile eggs.

Data set [7] deals with Ctenocephalides felis. Description: Ctenocephalides felis oral (CTECFE). Type of data set: in vivo. The settings on record: 100 ppm in citrated cattle blood, after 2 days. Here is the method: Solvent: 1 part by weight of dimethyl sulphoxide To produce a suitable preparation of active compound, 10 mg of active compound are mixed with 0.5 ml of dimethyl sulphoxide. One part of the concentrate is diluted with citrated cattle blood, and the desired concentration is prepared. 20 unfed adult fleas (Ctenocephalides felis) are placed into a chamber whose top and bottom ends are closed with gauze. A metal cylinder whose bottom end is closed with parafilm is placed onto the chamber. The cylinder contains the blood/active compound preparation, which can be taken up by the fleas through the parafilm membrane. After 2 days, the kill in % is determined. 100% means that all fleas have been killed; 0% means that none of the fleas have been killed.

The test system of data set [8] is Boophilus microplus strain Parkhurst (SP-resistant). Description: Boophilus microplus test (DIP). The data set is classed as in vivo. The following applies: 100 ppm. Here is the method: Test animals: adult fed females of the Boophilus microplus strain Parkhurst (SP-resistant)
Solvent: Dimethyl sulphoxide
10 mg of active compound are dissolved in 0.5 ml of dimethyl sulphoxide. To produce a suitable formulation, the active compound solution is diluted with water to the particular desired concentration. This active compound preparation is pipetted into tubes. 8-10 ticks are transferred into a further tube provided with holes. The tube is dipped into the active compound preparation, with all ticks being wetted completely. After the liquid has run off, the ticks are transferred to filter discs in plastic dishes and kept in a climatized room. After the desired period of time, the activity is checked for deposition of fertile eggs. Eggs whose fertility is not visible from the outside are kept in glass tubes in a climatized cupboard under the larvae have hatched. An activity of 100% means that no tick has laid fertile eggs.

By chromatographic logP is commonly meant a lipophilicity value derived from retention on a column.

The structures appear in SMILES notation.

As for `CC(C)O/C=N/c1c(-c2cc(Cl)cc(C(F)(F)F)c2)c(C(F)(F)F)nn1-c1ncccn1` [Example 1-13, isopropyl {4-[3-chloro-5-(trifluoromethyl)phenyl]-1-(pyrimidin-2-yl)-3-(trifluoromethyl)-1H-pyrazol-5-yl}imidoformate], in data set [1], the “activity (caterpillars killed)” value worked out at 100%. Further, in data set [2] (reversed-phase HPLC column (C 18), pH 7.8, ** LC-MS in the neutral range), the chromatographic logP is 4.88. Besides, the values for the kill in data set [3], in data set [4] (20 ppm) and in data set [7] were 100%, 100% and 95%, respectively. The “activity (beetle larvae killed)” value in data set [5] was found to be 100%. The “activity (no deposition of fertile eggs)” value in data set [6] is 100%.
For `FC(F)C(F)(F)c1nn(-c2ncccn2)c(N=Cc2ccccc2)c1-c1cc(Cl)cc(C(F)(F)F)c1` [Example 1-19], the “activity (caterpillars killed)” value in data set [1] stood at 100%. Further, the logP in data set [2] is given as 4.86**. In addition, the kill in data set [3], in data set [4] (100 ppm) and in data set [7] was 100% each time. Moreover, the “activity (beetle larvae killed)” value in data set [5] is 100%. For the same compound, the “activity (no deposition of fertile eggs)” value in data set [6] is 100%.
`FC(F)C(F)(F)c1nn(-c2ncccn2)c(N=Cc2ccc(Cl)cc2)c1-c1cc(Cl)cc(C(F)(F)F)c1` [Example 1-20]: the “activity (caterpillars killed)” value in data set [1] is given as 100%. Moreover, the logP in data set [2] was 5.37**. Besides, the kill in data set [3] came to 100%; in data set [4] (100 ppm), 100%; in data set [7] it was 95%. The “activity (beetle larvae killed)” value in data set [5] stood at 100%. The “activity (no deposition of fertile eggs)” value in data set [6] is 100%.
For the compound `COc1ccc(C=Nc2c(-c3cc(Cl)c4c(c3)OCO4)c(C(F)(F)C(F)F)nn2-c2ncccn2)cc1` [Example 1-23], the “activity (caterpillars killed)” value in data set [1] is listed as 100%. Moreover, the “activity (no deposition of fertile eggs)” value in data set [8] and in data set [6] was 100% in each case. In data set [2], the logP was 3.85**. Also, the kill in data set [3] and in data set [7] was 100% throughout. In addition, the “activity (beetle larvae killed)” value in data set [5] is 100%.
For `COc1cc(C=Nc2c(-c3cc(Cl)cc(C(F)(F)F)c3)c(C(F)(F)F)nn2-c2ncccn2)cc(OC)c1OC` [Example 1-28], in data set [1], the “activity (caterpillars killed)” value turned out to be 83%. The logP in data set [2] is 4.85**. Further, the kill in data set [3] stood at 100%; in data set [4] (100 ppm), 100%; in data set [7] it was 95%. In data set [5], the “activity (beetle larvae killed)” value came to 100%. Moreover, in data set [6], the “activity (no deposition of fertile eggs)” value came out at 100%.
As to `COc1cc(C=Nc2c(-c3cc(Cl)cc(C(F)(F)F)c3)c(C(F)(F)C(F)F)nn2-c2ncccn2)cc(OC)c1OC` [Example 1-29], the “activity (caterpillars killed)” value in data set [1] stood at 100%. For the same compound, the logP in data set [2] is given as 4.67**. Besides, the figures for the kill in data set [3], in data set [4] (100 ppm) and in data set [7] were 100%, 100% and 95%, respectively. Besides, the “activity (beetle larvae killed)” value in data set [5] stood at 100%. Moreover, the “activity (no deposition of fertile eggs)” value in data set [6] stood at 100%.
Turning to `FC(F)(F)c1cc(Cl)cc(-c2c(C(F)(F)C(F)(F)F)nn(-c3ncccn3)c2N=Cc2ccccc2)c1` [Example 1-42], the “activity (caterpillars killed)” value in data set [1] was determined as 100%. The logP in data set [2] is listed as 5.46**. For the same compound, the kill was 100% in data set [3], 100% in data set [4] (100 ppm) and 95% in data set [7]. In addition, the “activity (beetle larvae killed)” value in data set [5] is on record as 100%. Also, the “activity (no deposition of fertile eggs)” value in data set [6] is reported as 100%.
Regarding `COc1nccnc1-n1nc(C(F)(F)F)c(-c2cc(Cl)c3c(c2)OCO3)c1N=Cc1ccccc1` [Example 2-6], the “activity (no deposition of fertile eggs)” value in data set [8] and in data set [6] was 100% each time. Further, the logP in data set [2] is 4.58**. Also, the kill in data set [3] and in data set [7] was 100% in each case.
In the case of `COc1ccc(C=Nc2c(-c3cc(Cl)cc(C(F)(F)F)c3)c(C(F)(F)F)nn2-c2nccnc2OC)cc1` [Example 2-8], the “activity (no deposition of fertile eggs)” value in data set [8] and in data set [6] was 100% in each case. Also, the logP in data set [2] was 5.48**. The kill in data set [3] is 100%; in data set [7], 95%.
